Among the data in patent US20230183237A1, “COMPETITIVE AND NONCOMPETITIVE INHIBITORS OF THE MUSCARINIC ACETYLCHOLINE RECEPTOR M5” (Vanderbilt University, priority 2020, published 2023) are IC50 values, retold here.

For the assay, the target named is T1, hM5 (Homo sapiens, UniProt P08912).
T1 construct: expressed in transfected cells
T1 sequence (P08912 1-532): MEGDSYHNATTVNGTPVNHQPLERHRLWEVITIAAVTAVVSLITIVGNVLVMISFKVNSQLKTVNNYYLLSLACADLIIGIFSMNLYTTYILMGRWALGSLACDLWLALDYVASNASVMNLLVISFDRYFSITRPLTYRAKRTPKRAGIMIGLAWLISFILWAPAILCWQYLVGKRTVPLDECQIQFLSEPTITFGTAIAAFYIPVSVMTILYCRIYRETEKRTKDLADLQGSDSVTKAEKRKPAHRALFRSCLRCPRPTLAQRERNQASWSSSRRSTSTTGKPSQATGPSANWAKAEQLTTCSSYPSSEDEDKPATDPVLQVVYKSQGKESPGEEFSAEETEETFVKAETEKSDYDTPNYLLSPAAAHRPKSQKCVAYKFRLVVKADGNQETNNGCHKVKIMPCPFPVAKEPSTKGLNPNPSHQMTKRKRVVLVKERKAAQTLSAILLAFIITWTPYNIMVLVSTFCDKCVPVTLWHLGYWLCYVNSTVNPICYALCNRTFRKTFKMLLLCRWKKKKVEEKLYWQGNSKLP
The assay can be described thus: Calcium mobilization concentration-response (IC50 vs EC80 acetylcholine), CHO hM5. As to conditions: CELL LINE hM5; calcium mobilization, EC80 acetylcholine addition; read-out: IC50. The class given is cell-based. Put shortly:
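CHO cells stably expressing hM5, dye-loaded, in HBSS/20 mM HEPES/2.5 mM probenecid, pH 7.4. Compounds were pre-incubated 140 s before an EC80 acetylcholine challenge, with calcium flux read kinetically.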
In general terms: A change in cytosolic calcium serves as a functional read-out for many receptors and channels.
For orientation: IC50 means the concentration that gives 50% inhibition. As for `O=S(=O)(c1cnn2c1CCC2)N1CCC(c2cn3ncnc3cc2C(F)(F)F)CC1` [Compound 272, 6-(1-((5,6-dihydro-4H-pyrrolo[1,2-b]pyrazol-3-yl)sulfonyl)piperidin-4-yl)-7-(trifluoromethyl)-[1,2,4]triazolo[1,5-a]pyridine], the IC50 was 74 nM.

Consider `Cc1c(S(=O)(=O)N2CCC(c3cn4ncnc4cc3C(F)(F)F)CC2)cnn1C` [Compound 273, 6-(1-((1,5-dimethyl-1H-pyrazol-4-yl)sulfonyl)piperidin-4-yl)-7-(trifluoromethyl)-[1,2,4]triazolo[1,5-a]pyridine], for which the IC50 came to 150 nM.

With `Cc1nn(C)c(Cl)c1S(=O)(=O)N1CCC(c2cn3ncnc3cc2C(F)(F)F)CC1` [Compound 275, 6-(1-((5-chloro-1,3-dimethyl-1H-pyrazol-4-yl)sulfonyl)piperidin-4-yl)-7-(trifluoromethyl)-[1,2,4]triazolo[1,5-a]pyridine], the IC50 came out at 61 nM.

With `Cc1nn(C(F)F)cc1S(=O)(=O)N1CCC(c2cn3ncnc3cc2C(F)(F)F)CC1` [Compound 276, 6-(1-((1-(difluoromethyl)-3-methyl-1H-pyrazol-4-yl)sulfonyl)piperidin-4-yl)-7-(trifluoromethyl)-[1,2,4]triazolo[1,5-a]pyridine], the half-maximal inhibitory concentration (IC50) is more than 10000 nM.

For `Cc1ncc(S(=O)(=O)N2CCC(c3cn4ncnc4cc3C(F)(F)F)CC2)n1C` [Compound 277, 6-(1-((1,2-dimethyl-1H-imidazol-5-yl)sulfonyl)piperidin-4-yl)-7-(trifluoromethyl)-[1,2,4]triazolo[1,5-a]pyridine], the half-inhibitory concentration (IC50) stood at 234 nM.

In the case of `Cc1nc(C)c(S(=O)(=O)N2CCC(c3cn4ncnc4cc3C(F)(F)F)CC2)s1` [Compound 279, 2,4-dimethyl-5-((4-(7-(trifluoromethyl)-[1,2,4]triazolo[1,5-a]pyridin-6-yl)piperidin-1-yl)sulfonyl)thiazole], the IC50 was more than 10000 nM.

For the compound `Cc1cc(S(=O)(=O)N2CCC(c3cn4ncnc4cc3C(F)(F)F)CC2)c(C)s1` [Compound 280, 6-(1-((2,5-dimethylthiophen-3-yl)sulfonyl)piperidin-4-yl)-7-(trifluoromethyl)-[1,2,4]triazolo[1,5-a]pyridine], the IC50 was found to be 1900 nM.

As to `Cc1nn(C)c(C(F)(F)F)c1S(=O)(=O)N1CCC(c2cn3ncnc3cc2C(F)(F)F)CC1` [Compound 281, 6-(1-((1,3-dimethyl-5-(trifluoromethyl)-1H-pyrazol-4-yl)sulfonyl)piperidin-4-yl)-7-(trifluoromethyl)-[1,2,4]triazolo[1,5-a]pyridine], the IC50 came out at 1400 nM.

Turning to `O=S(=O)(c1cnn2c1CCCC2)N1CCC(c2cn3ncnc3cc2Cl)CC1` [Compound 283, 7-chloro-6-(1-((4,5,6,7-tetrahydropyrazolo[1,5-a]pyridin-3-yl)sulfonyl)piperidin-4-yl)-[1,2,4]triazolo[1,5-a]pyridine], the half-maximal inhibitory concentration (IC50) amounted to 7.3 nM.

On to `O=S(=O)(c1cnn2c1CCC2)N1CCC(c2ccc3ncnn3c2)CC1` [Compound 285, 6-(1-((5,6-dihydro-4H-pyrrolo[1,2-b]pyrazol-3-yl)sulfonyl)piperidin-4-yl)-[1,2,4]triazolo[1,5-a]pyridine], for which the IC50 turned out to be 51 nM.

As to `Cc1ncc(S(=O)(=O)N2CCC(c3ccc4ncnn4c3)CC2)n1C` [Compound 286, 6-(1-((1,2-dimethyl-1H-imidazol-5-yl)sulfonyl)piperidin-4-yl)-[1,2,4]triazolo[1,5-a]pyridine], the 50% inhibitory concentration (IC50) was 2000 nM.

For `O=S(=O)(c1cnn2c1CCCC2)N1CCC(c2ccc3ncnn3c2)CC1` [Compound 287, 6-(1-((4,5,6,7-tetrahydropyrazolo[1,5-a]pyridin-3-yl)sulfonyl)piperidin-4-yl)-[1,2,4]triazolo[1,5-a]pyridine], the half-inhibitory concentration (IC50) is 237 nM.

For the compound `Cc1c(S(=O)(=O)N2CCC(c3ccc4ncnn4c3)CC2)cnn1C` [Compound 288, 6(1-((1,5-dimethyl-1H-pyrazol-4-yl)sulfonyl)piperidin-4-yl)-[1,2,4]triazolo[1,5-a]pyridine], the IC50 worked out at 358 nM.
